US20240358671A1, “COMPOSITIONS AND METHODS TO TREAT SKIN DISORDERS” (THE TRUSTEES OF INDIANA UNIVERSITY, priority 2021, published 2024)
Entries after “also recorded” stand apart in the source; their conditions may differ.

Experiments:
[1] = system: PPARδ promoter; test: PPARδ promoter assay; type: cell-based; details: human keratinocytes; PPARδ promoter reporter; 5 μmol long chain ceramides, 48 h
Method: PPARδ promoter assay was done as described previously. mNP-Luc (PPARdelta promoter) was a gift (Addgene plasmid #16532; http://n2t.net/addgene:16532; RRID:Addgene_16532. Human keratinocytes cells were co-transfected with the PPARδ promoter reporter construct and treated with 5 μmol of long chain ceramides, C:18 and C:24 (Avanti Polar Lipids Inc., Alabama) using Lipofectamine™ LTX Reagent with PLUS™ Reagent (Thermo Fisher Scientific). Media were collected 48 h post transfection and the secreted GLuc and SEAP activities were measured with the Secrete-Pair Dual Luminescence Assay Kit (GeneCopoeia) according to the manufacturer's protocol using the Berthold Luminometer (Berthold Technologies). Normalized promoter activity has been presented as the ratio of GLuc to SEAP activities.

[2] = system: PPARδ; test: PPARδ trans-activity assay; type: cell-based; details: human keratinocytes; 5 μmol long chain ceramides, 48 h
Method: Human keratinocytes cells were treated with 5 μmol of long chain ceramides, C18:0 and C24:0 (Avanti Polar Lipids Inc., Alabama) using Lipofectamine LTX (Thermo Fisher Scientific). Cells were collected 48 h post transfection and nuclear protein was extracted using Nuclear Extraction Kit (RayBiotech) as per manufacturer's protocol. PPARδ trans-activity was measured using PPAR delta Transcription Factor Assay Kit (abcam) as per manufacturer's instructions.

[3] = system: CerS3; test: CerS3 expression in human keratinocytes treated with PPARδ agonist or antagonist, qPCR; type: cell-based; details: 1 μmol/ml
Text: FIGS. 11A-11O illustrate additional experimental results. FIG. 11A: Vector map of PPARδ promoter luciferase reporter. FIGS. 11B-11C: PPARδ drives CerS3 expression. CerS3 expression in human keratinocytes (HK) treated with PPARδ agonist (GW501516, 1 μmol/ml) or antagonist (GSK0660, 1 μmol/ml) as measured by qPCR. Data presented as mean±SEM (n=5). FIGS. 11D-11F: Upregulation of DNA methyl transferases in S-1-P treated HK. Data presented as mean±SEM (n=8). FIGS. 11G-11J: Induction of histone deacetylases in S-1P treated HK. Data presented as mean±SEM (n=8). FIGS. 11K-11N) Other histone deacetylases in S-1P treated HK. […] Data presented as mean±SEM, (n=8). FIG. 11O: miR-106b expression in HK treated with S-1-P (5 μmol/ml). Data presented as mean±SEM (n=8).

[4] = system: Human keratinocytes (HK); test: Human keratinocytes-Pseudomonas biofilm co-culture conditioned media: keratinocyte ceramide by anti-ceramide immunostaining; type: cell-based; details: HK treated with conditioned media (25% v/v) of cells co-cultured with PA biofilm containing ceramidastin 10 μg/ml, 24 h
Text: FIGS. 7A-7U relate to ceramide depletion and ceramidastin rescue. FIGS. 7A-7S: Ceramide depletion, as measured by LC-MS/MS, in cutaneous lipids. Following exposure to bacteria as applicable, lipids were extracted and analyzed via a targeted approach. Data thus obtained were subjected to analysis by ANOVA using R3.5.3 to specifically identify those lipids with significant differences between the three groups. Those with significance as tested by ANOVA were subjected to post hoc analysis using Tukey-HSD with a FDR cutoff of 0.05. Lipids with group differences that passed these thresholds were illustrated as box plots. Skin ceramides have been denoted using the standard nomenclature following the format of fatty acyl type, sphingoid backbone type, and sphingoid backbone length-fatty acyl length. […]
(§1) OCT embedded wound tissue blocks were sectioned using a cryostat. […] To enable fluorescence detection, sections were incubated with appropriate Alexa Fluor® 488 (green, Molecular probes), Alexa Fluor® […] (red, Molecular probes) conjugated secondary antibodies. […] Mosaic images were collected using collected using a Zeiss Axiovert 200 M, inverted fluorescence microscopy or confocal microscopy (LSM880). Image analysis was performed using Zen (Zeiss) software to quantitate fluorescence intensity (fluorescent pixels).

[5] = system: ABCA12; test: ABCA12 in human keratinocytes after PAwt biofilm infection; type: cell-based
Method: (§2) Bacterial biofilms were co-cultured with human keratinocytes cells following the method adapted from Anderson. The confluent cultures of human keratinocytes cells were inoculated with bacterial cultures of PAwt or PAΔcer (10^5 CFU/ml) in antibiotic free culture media. The plates were incubated for 1 h at 37° C. and 5% CO2. Post 1 h, fresh DMEM (without antibiotics) supplemented with 0.4% arginine was added to the plate. Post 7-8 hours, cells were harvested. The co-culture media was filtered using 0.2 μm filters and used for ceramidastin experiment. Human keratinocytes were treated with conditioned media (25% v/v) of cells co-cultured with PAwt biofilm containing ceramidastin (10 μg/ml) for 24 h.
as §1

[6] = molecular target: T1, PA bcdase (Pseudomonas aeruginosa, UniProt Q9I596); test: Ex vivo extracted skin lipids treated with biofilm-conditioned media, ceramides by LC-MS/MS; type: biochemical; details: conditioned media contained ceramidastin
T1 construct: cutaneous lipids exposed to biofilm-infected keratinocyte conditioned media (CM); endogenous in cells; host or cells: Wild-type Pseudomonas aeruginosa (PAwt) biofilm co-cultured with human keratinocytes; the conditioned medium holds the enzyme
T1 sequence (Q9I596 25-670): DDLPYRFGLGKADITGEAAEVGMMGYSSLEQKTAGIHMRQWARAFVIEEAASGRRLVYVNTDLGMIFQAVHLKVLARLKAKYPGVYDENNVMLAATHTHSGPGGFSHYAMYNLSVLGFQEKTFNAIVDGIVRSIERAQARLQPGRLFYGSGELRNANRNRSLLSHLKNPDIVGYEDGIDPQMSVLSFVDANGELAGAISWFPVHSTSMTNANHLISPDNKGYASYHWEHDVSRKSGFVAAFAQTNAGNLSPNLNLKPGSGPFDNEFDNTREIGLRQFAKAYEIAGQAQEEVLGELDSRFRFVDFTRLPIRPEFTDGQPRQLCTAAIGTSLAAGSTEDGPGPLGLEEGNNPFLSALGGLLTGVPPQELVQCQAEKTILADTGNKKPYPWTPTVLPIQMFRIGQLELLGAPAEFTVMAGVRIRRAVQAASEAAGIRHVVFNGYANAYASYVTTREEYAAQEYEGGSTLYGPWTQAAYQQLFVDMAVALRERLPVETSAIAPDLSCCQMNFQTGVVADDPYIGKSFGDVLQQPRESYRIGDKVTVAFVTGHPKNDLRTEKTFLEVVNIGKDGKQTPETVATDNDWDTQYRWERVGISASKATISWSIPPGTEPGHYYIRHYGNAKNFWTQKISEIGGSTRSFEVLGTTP
Method: FIGS. 8A-8N illustrate ceramide depletion. FIGS. 8A-8L Ceramide depletion, as measured by LC-MS/MS, in cutaneous lipids exposed to biofilm-infected keratinocyte conditioned media (CM). As indicated, to test the significance of PA bcdase, the CM contained ceramidastin (CST). Lipids were extracted and analyzed using an untargeted approach as described in Materials and Methods. The resultant data were analyzed using R 3.3. Wilcoxon Rank-Sum test was used for all group analyses and Kruskal-Wallis followed by Benjamini Hochberg correction was performed for multiple comparisons with significance at p<0.05. Skin ceramides have been denoted using the standard nomenclature following the format of fatty acyl type, sphingoid backbone type, and sphingoid backbone length-fatty acyl length. NS=Cer 2 (with non-hydroxy fatty acid, sphingoid backbone); NP=Cer 3 (non-hydroxy fatty acid, phytopshingoid backbone); NH=Cer 8 (non-hydroxy fatty acid, 6-hydroxy sphingoid backbone); NDS=Cer 10 (non-hydroxy fatty acid, dihydroxy sphingoid backbone); AS=Cer 5 (α-hydroxy fatty acid, sphingoid backbone); AP=Cer 6 (α-hydroxy fatty acid, phytosphingoid backbone). The Y-axis values are in mol %. (M) Digital wound images and planimetry shown. […]
Untargeted lipidomics was undertaken as previously published. […] Finally, lipids were analyzed via the use of MS/MSALL approach as previously disclosed. […]

[7] = system: PPARδ; test: PPARδ expression in human keratinocyte biofilm infection; type: cell-based; details: in the presence of ceramidastin
Method: as §2
Western blot was performed using antibodies against anti-PPARδ (Thermo Scientific, 1:500), anti-CerS3 (Origene, 1:500). β-actin (Sigma Aldrich, 1:5000) was used as housekeeping.

[8] = system: Staphylococcus epidermidis; details: cited from earlier work
[9] = system: Propionibacterium acnes; details: cited from earlier work
[10] = system: Staphylococcus epidermidis biofilm; details: cited from earlier work
[11] = system: P. aeruginosa; details: cited from earlier work
[12] = system: S. aureus; details: cited from earlier work
[13] = system: Micrococcus luteus; details: cited from earlier work
[14] = system: Streptococcus pyogenes; details: cited from earlier work

**Q.** Which PPARδ transcription [1] does the source give for `CCCCCCCCCCCCC/C=C/[C@@H](O)[C@H](CO)NC(=O)CCCCCCCCCCCCCCCCCCCCCCC` [C24] here?
**A.** Its PPARδ transcription is “induced”.

**Q.** What about the PPARδ transactivation [2] of the same compound?
**A.** The PPARδ transactivation was “induced”.

**Q.** What does the source list for `CCCCCCCCCCCCC/C=C/[C@@H](O)[C@H](CO)NC(=O)CCCCCCCCCCCCCCCCC` [C18]?
**A.** PPARδ transcription [1]: induced; PPARδ transactivation [2]: induced

**Q.** For `COC(=O)c1sccc1S(=O)(=O)Nc1ccc(Nc2ccccc2)cc1OC` [GSK0660], which CerS3 expression [3] is on record?
**A.** The CerS3 expression was “blunted the expression of CerS3”.

**Q.** With `CCCCCCC(O)C1C2=C(CC(C(O)C(O)C/C=C/CO)CC3=C(C(=O)OC3=O)C1O)C(=O)OC2=O` (centres unmarked) [Ceramidastin] as the compound, how does the “keratinocyte ceramide after PAwt biofilm infection” value [4] read?
**A.** The value was “rescued keratinocyte ceramide against loss; also recorded: rescued depletion of keratinocyte ceramide”.

**Q.** What about the “loss of ABCA12 in response to biofilm infection by PAwt” value [5] of the same compound?
**A.** The value was “prevented”.

**Q.** And the “ceramides in extracted skin lipids treated with biofilm-conditioned media” value [6]?
**A.** Its value is “rescue of ceramides”.

**Q.** What about the “PPARδ expression blunted by biofilm infection” value [7] of the same compound?
**A.** The value was “rescued”.

**Q.** Which CerS3 expression [3] does the source give for `Cc1cc(SCc2sc(-c3ccc(C(F)(F)F)cc3)nc2C)ccc1OCC(=O)O` [GW501516] here?
**A.** Its CerS3 expression is “increased expression of CerS3”.

**Q.** What does the source list for `CCCCCCCCCCCCC/C=C/[C@@H](O)[C@@H](N)CO` [Sphingosine]?
**A.** killing of Staphylococcus epidermidis [8]: effectively killed; killing of Propionibacterium acnes [9]: effectively killed; Staphylococcus epidermidis biofilm on orthopedic implant materials [10]: prevented and eliminated; killing of P. aeruginosa [11]: moderately killed; killing of S. aureus [12]: effectively killed; killing of Micrococcus luteus [13]: effectively killed; killing of Streptococcus pyogenes [14]: effectively killed
